Source: patent US20250084063A1 (Incyte Corporation, priority 2023, published 2025)
pIC50: −log10 of the molar value.

How the values were obtained:
Assay type in all cases: cell-based
[1] = biological target: T1, MRGPRX2 (Homo sapiens, UniProt Q96LB1); test: MRGPRX2 FLIPR calcium mobilization assay; set-up: host or cells: CHO-K1; settings: CHO-K1 cells stably expressing human MRGPRX2; Ca2+ release, agonist Cortistatin-14 at EC80
T1 sequence (Q96LB1 1-330): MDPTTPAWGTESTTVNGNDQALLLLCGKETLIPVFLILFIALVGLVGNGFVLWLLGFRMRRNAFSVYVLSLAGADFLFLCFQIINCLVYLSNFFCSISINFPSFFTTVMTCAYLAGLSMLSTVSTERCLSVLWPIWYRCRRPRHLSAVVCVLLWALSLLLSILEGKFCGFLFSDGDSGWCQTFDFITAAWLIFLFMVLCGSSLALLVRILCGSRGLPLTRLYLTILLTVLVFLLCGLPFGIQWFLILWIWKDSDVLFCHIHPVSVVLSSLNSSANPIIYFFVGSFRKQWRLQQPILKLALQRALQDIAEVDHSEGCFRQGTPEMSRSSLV
How it was run: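 CHO-K1 cells stably expressing human MRGPRX2, loaded with Calcium 6 dye, pre-incubated 30 min at room temperature with test compound in HBSS/20 mM HEPES pH 7.4. Then challenged with Cortistatin-14 at EC80; baseline-adjusted peak fluorescence over 110 s fitted to a Hill equation for IC50.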

[2] = biological target: T1, MRGPRX2; test: MRGPRX2 IP1 HTRF assay; set-up: host or cells: CHO-K1; settings: CHO-K1 cells stably expressing human MRGPRX2; IP1 accumulation, agonist Cortistatin 14 1 μM
[3] = biological target: T1, MRGPRX2; test: MRGPRX2 β-Arrestin assay; set-up: host or cells: PathHunter CHO-K1; settings: PathHunter CHO-K1 MRGPRX2 β-Arrestin cell line; agonist Cortistatin 14 0.25 μM
How it was run: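 PathHunter CHO-K1 cells expressing ProLink-tagged MRGPRX2 and enzyme-acceptor-tagged β-arrestin were preincubated with serially diluted compound 1 h at 37 °C, then stimulated with 0.25 μM cortistatin 14 (final) for 90 min. β-arrestin recruitment was read by luminescence; IC50 from 3- or 4-parameter Hill fits normalised to DMSO and reference antagonist controls.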

pIC50 [1]	pIC50 [2]	pIC50 [3]	Structure (SMILES)
7.00 to 10.00	7.00 to 10.00	7.00 to 10.00	NC(=O)N1CC(CNc2cc(C(F)(F)F)nc3ccc(Cl)cc23)(n2cc(F)cn2)C1 [Example 28, 3-(((6-Chloro-2-(trifluoromethyl)quinolin-4-yl)amino)methyl)-3-(4-fluoro-1H-pyrazol-1-yl)azetidine-1-carboxamide]
7.00 to 10.00	7.00 to 10.00	7.00 to 10.00	NC(=O)N1CCC(CNc2cc(C(F)(F)F)nc3ccc(Cl)cc23)(c2ccc(F)cn2)C1 (stereo not drawn) [Example 20, 3-(((6-Chloro-2-(trifluoromethyl)quinolin-4-yl)amino)methyl)-3-(5-fluoropyridin-2-yl) pyrrolidine-1-carboxamide]
7.00 to 10.00	7.00 to 10.00	7.00 to 10.00	NS(=O)(=O)N1CC(CNc2cc(C(F)(F)F)nc3ccc(Cl)cc23)(c2ccc(F)cc2)C1 [Example 32, 3-(((6-Chloro-2-(trifluoromethyl)quinolin-4-yl)amino)methyl)-3-(4-fluorophenyl)azetidine-1-sulfonamide]
7.00 to 10.00	6.00 to 7.00	7.00 to 10.00	Cn1ncc2ccc(C3(CNc4cc(C(F)(F)F)nc5ccc(Cl)cc45)CN(S(N)(=O)=O)C3)cc21 [Example 84, 3-(((6-Chloro-2-(trifluoromethyl)quinolin-4-yl)amino)methyl)-3-(1-methyl-1H-indazol-6-yl)azetidine-1-sulfonamide]
7.00 to 10.00	7.00 to 10.00	7.00 to 10.00	NC(=O)N1CC(CNc2cc(C(F)(F)F)nc3ccc(Cl)cc23)(n2cc(Cl)cn2)C1 [Example 37, 3-(4-Chloro-1H-pyrazol-1-yl)-3-(((6-chloro-2-(trifluoromethyl)quinolin-4-yl)amino)methyl)azetidine-1-carboxamide]
7.00 to 10.00	7.00 to 10.00	7.00 to 10.00	NS(=O)(=O)N1CC(CNc2cc(C(F)(F)F)nc3ccc(C(F)(F)F)cc23)(c2ccc(F)cc2)C1 [Example 1, 3-(((2,6-Bis(trifluoromethyl)quinolin-4-yl)amino)methyl)-3-(4 fluorophenyl)azetidine-1-sulfonamide]
7.00 to 10.00	7.00 to 10.00	7.00 to 10.00	N#CN=C(N)N1CC(CNc2cc(C(F)(F)F)nc3ccc(Cl)cc23)(c2ccc(F)cc2)C1 [Example 7, 3-(((6-Chloro-2-(trifluoromethyl)quinolin-4-yl)amino)methyl)-N′-cyano-3-(4-fluorophenyl)azetidine-1-carboximidamide]
7.00 to 10.00	7.00 to 10.00	7.00 to 10.00	O=C1NC(=O)C2(CC(CNc3cc(C(F)(F)F)nc4ccc(Cl)cc34)(c3ccccc3)C2)N1 (stereo not drawn) [Example 108, 2-(((6-Chloro-2-(trifluoromethyl)quinolin-4-yl)amino)methyl)-2-phenyl-5,7-diazaspiro[3.4]octane-6,8-dione]
7.00 to 10.00	7.00 to 10.00	7.00 to 10.00	O=C(NC1CC(O)C1)N1CC(CNc2cc(C(F)(F)F)nc3ccc(Cl)cc23)(n2cc(F)cn2)C1 (stereo not drawn) [Example 106, 3-(((6-Chloro-2-(trifluoromethyl)quinolin-4-yl)amino)methyl)-3-(4-fluoro-1H-pyrazol-1-yl)-N-(3-hydroxycyclobutyl)azetidine-1-carboxamide]
7.00 to 10.00	7.00 to 10.00	7.00 to 10.00	N#CN=C(N)N1CCC(CNc2cc(C(F)(F)F)nc3ccc(Cl)cc23)(c2ccccc2)CC1 [Example 9, 4-(((6-Chloro-2-(trifluoromethyl)quinolin-4-yl)amino)methyl)-N′-cyano-4-phenylpiperidine-1-carboximidamide]
7.00 to 10.00	7.00 to 10.00	7.00 to 10.00	NS(=O)(=O)N1CC(CNc2cc(C(F)(F)F)nc3ccc(Cl)cc23)(n2cc(F)cn2)C1 [Example 24, 3-(((6-Chloro-2-(trifluoromethyl)quinolin-4-yl)amino)methyl)-3-(4-fluoro-1H-pyrazol-1-yl)azetidine-1-sulfonamide]
7.00 to 10.00	7.00 to 10.00	7.00 to 10.00	FC(F)(F)c1cc(NCC2(c3ccccc3)CCOC2)c2cc(Cl)ccc2n1 (stereo not drawn) [Example 16, 6-Chloro-N-((3-phenyltetrahydrofuran-3-yl)methyl)-2-(trifluoromethyl)quinolin-4-amine]
7.00 to 10.00	7.00 to 10.00	7.00 to 10.00	CNC(=O)N1CC(CNc2cc(C(F)(F)F)nc3ccc(Cl)cc23)(n2cc(Cl)cn2)C1 [Example 98, 3-(4-Chloro-1H-pyrazol-1-yl)-3-(((6-chloro-2-(trifluoromethyl)quinolin-4-yl)amino)methyl)-N-methylazetidine-1-carboxamide]
7.00 to 10.00	7.00 to 10.00	7.00 to 10.00	NS(=O)(=O)N1CC(CNc2cc(C(F)(F)F)nc3ccc(Cl)cc23)(c2ccc(Cl)cn2)C1 [Example 29, 3-(((6-Chloro-2-(trifluoromethyl)quinolin-4-yl)amino)methyl)-3-(5-chloropyridin-2-yl)azetidine-1-sulfonamide]
7.00 to 10.00	7.00 to 10.00	7.00 to 10.00	O=C(NC1CC(F)(F)C1)N1CC(CNc2cc(C(F)(F)F)nc3ccc(Cl)cc23)(n2cc(F)cn2)C1 [Example 22, 3-(((6-Chloro-2-(trifluoromethyl)quinolin-4-yl)amino)methyl)-N-(3,3-difluorocyclobutyl)-3-(4-fluoro-1H-pyrazol-1-yl)azetidine-1-carboxamide]
7.00 to 10.00	7.00 to 10.00	7.00 to 10.00	NS(=O)(=O)N1CC(CNc2cc(C(F)(F)F)nc3ccc(Br)cc23)(c2ccc(F)cc2)C1 [Example 3, 3-(((6-Bromo-2-(trifluoromethyl)quinolin-4-yl)amino)methyl)-3-(4-fluorophenyl)azetidine-1-sulfonamide]
7.00 to 10.00	7.00 to 10.00	7.00 to 10.00	NS(=O)(=O)N1CCC(CNc2cc(C(F)(F)F)nc3ccc(F)cc23)(c2ccccc2)CC1 [Example 11, 4-(((6-Fluoro-2-(trifluoromethyl)quinolin-4-yl)amino)methyl)-4-phenylpiperidine-1-sulfonamide]
7.00 to 10.00	7.00 to 10.00	7.00 to 10.00	NS(=O)(=O)N1CC(CNc2cc(C(F)(F)F)nc3ccc(Cl)cc23)(c2ccc(F)cn2)C1 [Example 46, 3-(((6-Chloro-2-(trifluoromethyl)quinolin-4-yl)amino)methyl)-3-(5-fluoropyridin-2-yl)azetidine-1-sulfonamide]
7.00 to 10.00	6.00 to 7.00	6.00 to 7.00	NC(=O)N1CC(CNc2cc(C(F)(F)F)nc3cc(F)ccc23)(c2ccc(F)cn2)C1 [Example 59, 3-(((7-Fluoro-2-(trifluoromethyl)quinolin-4-yl)amino)methyl)-3-(5-fluoropyridin-2-yl)azetidine-1-carboxamide]
7.00 to 10.00	7.00 to 10.00	7.00 to 10.00	NS(=O)(=O)N1CCC(CNc2cc(C(F)(F)F)nc3ccc(Cl)cc23)(c2ccccc2)CC1 [Example 12, 4-(((6-Chloro-2-(trifluoromethyl)quinolin-4-yl)amino)methyl)-4-phenylpiperidine-1-sulfonamide]
7.00 to 10.00	7.00 to 10.00	7.00 to 10.00	NC(=O)N1CC(CNc2cc(C(F)(F)F)nc3ccc(Cl)cc23)(c2ccc(F)cn2)C1 [Example 47, 3-(((6-Chloro-2-(trifluoromethyl)quinolin-4-yl)amino)methyl)-3-(5-fluoropyridin-2-yl)azetidine-1-carboxamide]
7.00 to 10.00	7.00 to 10.00	7.00 to 10.00	CNC(=O)N1CC(CNc2cc(C(F)(F)F)nc3ccc(Cl)cc23)(n2cc(Br)cn2)C1 [Example 99, 3-(4-Bromo-1H-pyrazol-1-yl)-3-(((6-chloro-2-(trifluoromethyl)quinolin-4-yl)amino)methyl)-N-methylazetidine-1-carboxamide]
7.00 to 10.00	7.00 to 10.00	7.00 to 10.00	NS(=O)(=O)N1CC(CNc2cc(C(F)(F)F)nc3ccc(Cl)cc23)(n2ccc(F)n2)C1 [Example 18, 3-(((6-Chloro-2-(trifluoromethyl)quinolin-4-yl)amino)methyl)-3-(3-fluoro-1H-pyrazol-1-yl)azetidine-1-sulfonamide]
7.00 to 10.00	7.00 to 10.00	7.00 to 10.00	Cc1ccc2nc(C(F)(F)F)cc(NCC3(c4ccc(F)cc4)CN(S(N)(=O)=O)C3)c2c1 [Example 2, 3-(4-Fluorophenyl)-3-(((6-methyl-2-(trifluoromethyl)quinolin-4-yl)amino)methyl)azetidine-1-sulfonamide]
7.00 to 10.00	7.00 to 10.00	7.00 to 10.00	NS(=O)(=O)N1CC(CNc2cc(C(F)(F)F)nc3ccc(F)cc23)(c2ccc(F)cc2)C1 [Example 23, 3-(((6-Fluoro-2-(trifluoromethyl)quinolin-4-yl)amino)methyl)-3-(4-fluorophenyl)azetidine-1-sulfonamide]
